Reference: PMC6332188, “Synthesis, Antiviral Bioactivity of Novel 4-Thioquinazoline Derivatives Containing Chalcone Moiety” (Molecules, 2015)

The molecules below were run against T1, TMV CP (tobacco mosaic virus coat protein) (Tobacco mosaic virus (vulgare), UniProt P69687) (assay: microscale thermophoresis).
T1 construct: labelled with Monolith NT Protein Labeling Kit Red
T1 sequence (P69687 2-159 limits assumed): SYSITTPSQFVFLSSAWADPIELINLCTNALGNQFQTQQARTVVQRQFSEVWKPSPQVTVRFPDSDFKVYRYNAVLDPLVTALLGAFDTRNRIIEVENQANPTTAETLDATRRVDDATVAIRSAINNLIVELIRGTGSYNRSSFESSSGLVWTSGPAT
Assay type: binding
From the text: microscale thermophoresis on TMV CP (tobacco mosaic virus coat protein)
In the case of `COc1ccc(/C=C/C(=O)c2ccc(OCCSc3ncnc4ccccc34)cc2)cc1OC` [M6, (E)-3-(3,4-Dimethoxyphenyl)-1-(4-(2-(quinazolin-4-ylthio)ethoxy)phenyl)prop-2-en-1-one], the Kd is reported as 31.1 ± 1.83 µM.
With `O=C(/C=C/c1ccc(Cl)cc1)c1ccc(OCCSc2ncnc3ccccc23)cc1` [M15] the Kd was 346 ± 23.9 µM.
`NC(=O)c1ncn([C@@H]2O[C@H](CO)[C@@H](O)[C@H]2O)n1` [Ribavirin] showed a Kd of 511 ± 33.1 µM.
